Data on five compounds can be found in patent US11433055B2, “Chromane monobactam compounds for the treatment of bacterial infections” (priority 2017, dated 2022).

Type in all cases: cell-based
Common to all, as to conditions: lowest concentration inhibiting 95% of bacterial growth; in the presence of β lactamase inhibitor (BLi, Relebactam); 22 hours, 35±2° C., OD600

Experiment [1] has as its system Acinetobacter baumannii expressing TEM-1, AmpC, and Oxa-24/40 (CL6188).
The subject of experiment [2] is Escherichia coli expressing NDM-1 (CLB30016).
The subject of experiment [3] is Klebsiella pneumoniae expressing KPC-1 (CL6569).
Experiment [4] deals with Pseudomonas aeruginosa expressing AmpC (CL5701).

Structures can show the parent of a compound that is named as a salt.

Regarding `CC1(C)[C@H](NC(=O)/C(=N\O[C@](C)(C(=O)O)[C@H]2CCc3cc(-c4ccc(NCCCN)[n+](CC5CNC5)c4)ccc3O2)c2csc(N)n2)C(=O)N1OS(=O)(=O)[O-].O=CO` [Example 22, (S)-3-((Z)-2-(((S)-1-((R)-6-(6-((3-aminopropyl)amino)-1-(azetidin-1-ium-3-ylmethyl)pyridin-1-ium-3-yl)chroman-2-yl)-1-carboxyethoxy)imino)-2-(2-aminothiazol-4-yl)acetamido)-2,2-dimethyl-4-oxoazetidin-1-yl sulfate formate], in experiment [1], the “AB_CL6188 MITC95” value was determined as 12.5 µM. Besides, in experiment [2], the “EC_CLB30016 MITC95” value stood at 12.5 µM. In experiment [3], the “KP_CL6569 MITC95” value worked out at 0.7813 µM. The “PA_CL5701 MITC95” value in experiment [4] amounted to 25 µM.
On to `CC1(C)[C@H](NC(=O)/C(=N\O[C@](C)(C(=O)O)C2CCc3cc(-c4cn(C[C@@H](O)CN)[n+](CCCN)c4)ccc3O2)c2csc(N)n2)C(=O)N1OS(=O)(=O)[O-]` (mixture of isomers) [Example 5, (3 S)-3-((Z)-2-(((1 S)-1-(6-(1-((S)-3-amino-2-hydroxypropyl)-2-(3-aminopropyl)-1H-pyrazol-2-ium-4-yl)chroman-2-yl)-1-carboxyethoxy)imino)-2-(2-aminothiazol-4-yl)acetamido)-2,2-dimethyl-4-oxoazetidin-1-yl Sulfate], for which the “AB_CL6188 MITC95” value in experiment [1] is 25 µM. In experiment [2], the “EC_CLB30016 MITC95” value was 100 µM. In experiment [3], the “KP_CL6569 MITC95” value was determined as 6.25 µM. Besides, in experiment [4], the “PA_CL5701 MITC95” value was found to be 50 µM.
In the case of `C[n+]1cc(-c2ccc3c(c2)CC[C@H]([C@](C)(O/N=C(\C(=O)N[C@@H]2C(=O)N(OS(=O)(=O)[O-])C2(C)C)c2csc(N)n2)C(=O)O)O3)cn1CC1(N)CNC1` [Example 6, (S)-3-((Z)-2-(((S)-1-((R)-6-(1-((3-Aminoazetidin-3-yl)methyl)-2-methyl-1H-pyrazol-2-ium-4-yl)chroman-2-yl)-1-carboxyethoxy)imino)-2-(2-aminothiazol-4-yl)acetamido)-2,2-dimethyl-4-oxoazetidin-1-yl Sulfate], in experiment [1], the “AB_CL6188 MITC95” value worked out at 100 µM. The “EC_CLB30016 MITC95” value in experiment [2] came out at 100 µM. Further, the “KP_CL6569 MITC95” value in experiment [3] came out at 12.5 µM. Also, in experiment [4], the “PA_CL5701 MITC95” value is 100 µM.
With `C[n+]1cc(-c2ccc3c(c2)OCC(CO/N=C(\C(=O)N[C@@H]2C(=O)N(OS(=O)(=O)[O-])C2(C)C)c2csc(N)n2)C3)ccc1NCCN.O=C(O)C(F)(F)F` (stereo partly drawn) [Example 38, mono((S)-3-((Z)-2-(2-aminothiazol-3-ium-4-yl)-2-((((S)-7-(6-((2-ammonioethyl)amino)-1-methylpyridin-1-ium-3-yl)chroman-3-yl)methoxy)imino)acetamido)-2,2-dimethyl-4-oxoazetidin-1-yl sulfate) mono(2,2,2-trifluoroacetate)], in experiment [1], the “AB_CL6188 MITC95” value worked out at 6.25 µM. The “EC_CLB30016 MITC95” value in experiment [2] turned out to be 6.25 µM. In addition, the “KP_CL6569 MITC95” value in experiment [3] came out at 0.3906 µM. Moreover, the “PA_CL5701 MITC95” value in experiment [4] amounted to 6.25 µM.
Consider `CC1(C)[C@H](NC(=O)/C(=N\O[C@](C)(C(=O)O)[C@H]2CCc3cc(-c4cn(C[C@@H](O)CN)[n+](CC5CNC5)c4)ccc3O2)c2csc(N)n2)C(=O)N1OS(=O)(=O)[O-]` [Example 4, (S)-3-((Z)-2-(((S)-1-((R)-6-(1-((S)-3-Amino-2-hydroxypropyl)-2-(azetidin-3-ylmethyl)-1H-pyrazol-2-ium-4-yl)chroman-2-yl)-1-carboxyethoxy)imino)-2-(2-aminothiazol-4-yl)acetamido)-2,2-dimethyl-4-oxoazetidin-1-yl Sulfate], for which the “AB_CL6188 MITC95” value in experiment [1] was determined as 6.25 µM. Further, in experiment [2], the “EC_CLB30016 MITC95” value amounted to 12.5 µM. Further, in experiment [3], the “KP_CL6569 MITC95” value is 1.281 µM. The “PA_CL5701 MITC95” value in experiment [4] stood at 25 µM.
